Reference: patent US10351575B2, “Bicyclic urea, thiourea, guanidine and cyanoguanidine compounds useful for the treatment of pain” (Array BioPharma Inc., priority 2012, dated 2019)

Assays:
[1] = target: His-tagged recombinant human TrkA (Homo sapiens (Human), UniProt P04629); test: TrkA LanthaScreen Eu Kinase Binding Assay; details: averaged IC50; TR-FRET binding, 60 min, 22° C.; read-out: TrkA Enzyme IC50
Outline: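 Three-fold compound dilutions (2% DMSO final) were incubated 60 min at 22° C. with 5 nM His-TrkA cytoplasmic domain, tracer 236 (4 nM), biotinylated anti-His (2 nM) and europium streptavidin (2 nM) in MOPS pH 7.5 buffer. Emission ratio 665/615 gave percent of control; four-parameter fit yielded IC50.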

PRKG1beta = PRKG1beta (Homo sapiens (Human), UniProt Q13976); test: KinaseProfiler off-target kinase profiling; type: biochemical; details: 10 μM, ATP near Km
Description: (§1) Representative compounds (Examples 12, 32, 26 and 2) of the invention were tested for off-target kinase activity at a concentration of 10 μM by Millipore, Inc. in their KinaseProfiler™ service against all the kinases available in their full kinase panel. Compounds were run in duplicate at a concentration of ATP near the Km for each individual kinase according to Millipore's specifications. The results are shown in Table B. Data are reported as percent of control (POC) and are the average of the two replicates.

LIMK1 = LIMK1 (Homo sapiens (Human), UniProt P53667); test: KinaseProfiler off-target kinase profiling; type: biochemical; details: 10 μM, ATP near Km
Description: as §1

CK1delta = CK1delta (Homo sapiens (Human), UniProt P48730); test: KinaseProfiler off-target kinase profiling; type: biochemical; details: 10 μM, ATP near Km
Description: as §1

p38alpha = p38alpha (Homo sapiens (Human), UniProt Q16539); test: KinaseProfiler off-target kinase profiling; type: biochemical; details: 10 μM, ATP near Km
Description: as §1

MKNK2 = MKNK2 (Homo sapiens (Human), UniProt Q9HBH9); test: KinaseProfiler off-target kinase profiling; type: biochemical; details: 10 μM, ATP near Km
Description: as §1

CDK1/cyclinB = CDK1/cyclinB (Homo sapiens (Human), UniProt P06493); test: KinaseProfiler off-target kinase profiling; type: biochemical; details: 10 μM, ATP near Km
Description: as §1

EphB4 = EphB4 (Homo sapiens (Human), UniProt P54760); test: KinaseProfiler off-target kinase profiling; type: biochemical; details: 10 μM, ATP near Km
Description: as §1

DAPK1 = DAPK1 (Homo sapiens (Human), UniProt P53355); test: KinaseProfiler off-target kinase profiling; type: biochemical; details: 10 μM, ATP near Km
Description: as §1

CLK3 = CLK3 (Homo sapiens (Human), UniProt P49761); test: KinaseProfiler off-target kinase profiling; type: biochemical; details: 10 μM, ATP near Km
Sequence of CLK3 (P49761 whole entry): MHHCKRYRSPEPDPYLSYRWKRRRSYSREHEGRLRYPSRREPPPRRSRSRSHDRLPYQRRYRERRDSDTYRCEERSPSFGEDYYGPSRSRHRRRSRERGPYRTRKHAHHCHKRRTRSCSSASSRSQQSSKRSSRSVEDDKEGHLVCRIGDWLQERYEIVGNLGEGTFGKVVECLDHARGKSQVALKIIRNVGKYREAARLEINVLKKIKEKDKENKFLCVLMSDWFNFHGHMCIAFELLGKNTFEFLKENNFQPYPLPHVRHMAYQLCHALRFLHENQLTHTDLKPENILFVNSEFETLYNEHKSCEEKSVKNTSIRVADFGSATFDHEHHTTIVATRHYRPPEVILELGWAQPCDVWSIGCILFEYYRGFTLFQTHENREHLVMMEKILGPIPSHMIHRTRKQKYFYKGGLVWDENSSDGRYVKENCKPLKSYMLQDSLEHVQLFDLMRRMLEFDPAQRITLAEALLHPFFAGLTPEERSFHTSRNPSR
Description: as §1

KDR = KDR (Homo sapiens (Human), UniProt P35968); test: KinaseProfiler off-target kinase profiling; type: biochemical; details: 10 μM, ATP near Km
Description: as §1

NLK = NLK (Homo sapiens (Human), UniProt Q9UBE8); test: KinaseProfiler off-target kinase profiling; type: biochemical; details: 10 μM, ATP near Km
Description: as §1

Axl = Axl (Homo sapiens (Human), UniProt P30530); test: KinaseProfiler off-target kinase profiling; type: biochemical; details: 10 μM, ATP near Km
Description: as §1

GRK7 = GRK7 (Homo sapiens (Human), UniProt Q8WTQ7); test: KinaseProfiler off-target kinase profiling; type: biochemical; details: 10 μM, ATP near Km
Description: as §1

JNK1alpha1 = JNK1alpha1 (Homo sapiens (Human), UniProt P45983); test: KinaseProfiler off-target kinase profiling; type: biochemical; details: 10 μM, ATP near Km
Sequence of JNK1alpha1 (P45983 other isoform, or with tags, fused parts or gaps): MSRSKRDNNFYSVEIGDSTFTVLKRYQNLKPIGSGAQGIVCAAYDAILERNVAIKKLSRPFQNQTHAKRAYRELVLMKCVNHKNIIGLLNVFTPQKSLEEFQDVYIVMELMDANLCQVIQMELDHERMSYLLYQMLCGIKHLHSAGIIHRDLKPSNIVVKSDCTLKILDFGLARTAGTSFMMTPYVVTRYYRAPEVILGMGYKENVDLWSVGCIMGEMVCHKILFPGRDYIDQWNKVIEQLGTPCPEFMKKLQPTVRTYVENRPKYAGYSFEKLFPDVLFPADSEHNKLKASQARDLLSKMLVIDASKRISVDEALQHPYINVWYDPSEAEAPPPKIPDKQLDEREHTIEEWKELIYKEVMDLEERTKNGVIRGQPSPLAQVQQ
Description: as §1

Pim-3 = Pim-3 (Homo sapiens (Human), UniProt Q86V86); test: KinaseProfiler off-target kinase profiling; type: biochemical; details: 10 μM, ATP near Km
Description: as §1

Rsk1 = Rsk1 (Homo sapiens (Human), UniProt Q15418); test: KinaseProfiler off-target kinase profiling; type: biochemical; details: 10 μM, ATP near Km
Description: as §1

ITK = ITK (Homo sapiens (Human), UniProt Q08881); test: KinaseProfiler off-target kinase profiling; type: biochemical; details: 10 μM, ATP near Km
Sequence of ITK (Q08881 whole entry): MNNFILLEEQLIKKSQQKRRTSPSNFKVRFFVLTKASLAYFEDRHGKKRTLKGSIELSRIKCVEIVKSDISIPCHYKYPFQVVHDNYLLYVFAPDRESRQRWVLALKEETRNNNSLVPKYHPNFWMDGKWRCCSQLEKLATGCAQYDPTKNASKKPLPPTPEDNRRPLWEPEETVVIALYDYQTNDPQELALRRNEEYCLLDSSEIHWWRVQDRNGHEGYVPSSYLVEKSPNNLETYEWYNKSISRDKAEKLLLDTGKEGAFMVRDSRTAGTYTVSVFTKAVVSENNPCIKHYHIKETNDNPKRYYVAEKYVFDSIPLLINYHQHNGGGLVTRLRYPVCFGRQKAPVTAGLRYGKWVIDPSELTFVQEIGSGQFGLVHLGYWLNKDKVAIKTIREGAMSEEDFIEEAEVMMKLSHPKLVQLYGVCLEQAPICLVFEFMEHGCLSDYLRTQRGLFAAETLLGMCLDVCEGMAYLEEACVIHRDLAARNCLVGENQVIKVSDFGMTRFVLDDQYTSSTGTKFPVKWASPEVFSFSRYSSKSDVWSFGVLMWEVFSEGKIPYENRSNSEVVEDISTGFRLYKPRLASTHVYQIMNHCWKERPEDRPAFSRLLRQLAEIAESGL
Description: as §1

p38gamma = p38gamma (Homo sapiens (Human), UniProt P53778); test: KinaseProfiler off-target kinase profiling; type: biochemical; details: 10 μM, ATP near Km
Description: as §1

PrKX = PrKX (Homo sapiens (Human), UniProt P51817); test: KinaseProfiler off-target kinase profiling; type: biochemical; details: 10 μM, ATP near Km
Description: as §1

EphA2 = EphA2 (Homo sapiens (Human), UniProt P29317); test: KinaseProfiler off-target kinase profiling; type: biochemical; details: 10 μM, ATP near Km
Description: as §1

TSSK2 = TSSK2 (Homo sapiens (Human), UniProt Q96PF2); test: KinaseProfiler off-target kinase profiling; type: biochemical; details: 10 μM, ATP near Km
Description: as §1

MSK1 = MSK1 (Homo sapiens (Human), UniProt O75582); test: KinaseProfiler off-target kinase profiling; type: biochemical; details: 10 μM, ATP near Km
Description: as §1

BrSK1 = BrSK1 (Homo sapiens (Human), UniProt Q8TDC3); test: KinaseProfiler off-target kinase profiling; type: biochemical; details: 10 μM, ATP near Km
Sequence of BrSK1 (Q8TDC3 whole entry): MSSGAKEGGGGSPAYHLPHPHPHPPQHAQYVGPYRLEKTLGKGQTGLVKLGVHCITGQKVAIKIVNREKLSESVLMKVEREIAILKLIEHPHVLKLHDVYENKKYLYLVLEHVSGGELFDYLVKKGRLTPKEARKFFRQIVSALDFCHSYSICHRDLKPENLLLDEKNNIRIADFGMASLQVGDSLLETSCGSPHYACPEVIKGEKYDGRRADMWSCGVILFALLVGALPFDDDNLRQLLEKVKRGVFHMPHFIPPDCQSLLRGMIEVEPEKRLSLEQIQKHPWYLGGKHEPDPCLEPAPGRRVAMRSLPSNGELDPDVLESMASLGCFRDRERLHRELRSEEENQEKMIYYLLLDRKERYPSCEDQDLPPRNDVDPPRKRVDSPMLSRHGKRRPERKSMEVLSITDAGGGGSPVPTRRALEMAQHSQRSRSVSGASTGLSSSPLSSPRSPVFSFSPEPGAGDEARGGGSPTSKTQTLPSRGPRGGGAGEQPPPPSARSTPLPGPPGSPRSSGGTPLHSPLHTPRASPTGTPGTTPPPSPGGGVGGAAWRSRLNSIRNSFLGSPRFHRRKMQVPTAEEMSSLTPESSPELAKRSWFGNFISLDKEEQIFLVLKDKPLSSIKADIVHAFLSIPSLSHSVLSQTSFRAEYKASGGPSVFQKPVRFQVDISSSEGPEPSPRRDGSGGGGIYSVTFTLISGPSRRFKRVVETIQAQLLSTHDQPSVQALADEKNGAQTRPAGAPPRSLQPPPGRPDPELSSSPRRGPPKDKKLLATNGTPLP
Description: as §1

Fgr = Fgr (Homo sapiens (Human), UniProt P09769); test: KinaseProfiler off-target kinase profiling; type: biochemical; details: 10 μM, ATP near Km
Description: as §1

CAMK2g = CAMK2g (Homo sapiens (Human), UniProt Q13555); test: KinaseProfiler off-target kinase profiling; type: biochemical; details: 10 μM, ATP near Km
Sequence of CAMK2g (Q13555 whole entry): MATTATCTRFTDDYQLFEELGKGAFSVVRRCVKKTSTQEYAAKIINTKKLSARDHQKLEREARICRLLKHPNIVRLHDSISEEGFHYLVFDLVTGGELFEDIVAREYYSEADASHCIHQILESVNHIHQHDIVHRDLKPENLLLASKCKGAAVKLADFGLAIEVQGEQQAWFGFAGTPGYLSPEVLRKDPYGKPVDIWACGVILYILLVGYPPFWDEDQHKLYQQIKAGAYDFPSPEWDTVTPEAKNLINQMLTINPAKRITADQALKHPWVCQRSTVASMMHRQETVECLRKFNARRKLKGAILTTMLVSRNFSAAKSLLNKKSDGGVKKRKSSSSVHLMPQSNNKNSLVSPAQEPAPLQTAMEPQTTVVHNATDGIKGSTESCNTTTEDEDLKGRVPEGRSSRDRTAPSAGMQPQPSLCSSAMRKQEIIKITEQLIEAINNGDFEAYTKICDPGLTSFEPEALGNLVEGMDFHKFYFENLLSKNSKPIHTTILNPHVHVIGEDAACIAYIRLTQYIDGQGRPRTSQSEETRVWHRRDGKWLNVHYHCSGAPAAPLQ
Description: as §1

p38delta = p38delta (Homo sapiens (Human), UniProt O15264); test: KinaseProfiler off-target kinase profiling; type: biochemical; details: 10 μM, ATP near Km
Sequence of p38delta (O15264 whole entry): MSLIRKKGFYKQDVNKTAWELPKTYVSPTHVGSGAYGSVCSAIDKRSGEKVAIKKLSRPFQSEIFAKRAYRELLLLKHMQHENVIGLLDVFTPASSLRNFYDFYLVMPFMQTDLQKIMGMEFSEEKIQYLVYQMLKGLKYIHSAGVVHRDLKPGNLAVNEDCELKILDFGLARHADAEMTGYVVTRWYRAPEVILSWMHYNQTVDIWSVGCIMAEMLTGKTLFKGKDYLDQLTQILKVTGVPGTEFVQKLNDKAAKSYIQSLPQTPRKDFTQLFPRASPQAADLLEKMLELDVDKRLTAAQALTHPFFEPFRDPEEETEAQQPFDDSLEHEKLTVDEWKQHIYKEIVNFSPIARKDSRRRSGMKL
Description: as §1

NEK6 = NEK6 (Homo sapiens (Human), UniProt Q9HC98); test: KinaseProfiler off-target kinase profiling; type: biochemical; details: 10 μM, ATP near Km
Description: as §1

PKCiota = PKCiota (Homo sapiens (Human), UniProt P41743); test: KinaseProfiler off-target kinase profiling; type: biochemical; details: 10 μM, ATP near Km
Description: as §1

LOK = LOK (Homo sapiens (Human), UniProt O94804); test: KinaseProfiler off-target kinase profiling; type: biochemical; details: 10 μM, ATP near Km
Sequence of LOK (O94804 whole entry): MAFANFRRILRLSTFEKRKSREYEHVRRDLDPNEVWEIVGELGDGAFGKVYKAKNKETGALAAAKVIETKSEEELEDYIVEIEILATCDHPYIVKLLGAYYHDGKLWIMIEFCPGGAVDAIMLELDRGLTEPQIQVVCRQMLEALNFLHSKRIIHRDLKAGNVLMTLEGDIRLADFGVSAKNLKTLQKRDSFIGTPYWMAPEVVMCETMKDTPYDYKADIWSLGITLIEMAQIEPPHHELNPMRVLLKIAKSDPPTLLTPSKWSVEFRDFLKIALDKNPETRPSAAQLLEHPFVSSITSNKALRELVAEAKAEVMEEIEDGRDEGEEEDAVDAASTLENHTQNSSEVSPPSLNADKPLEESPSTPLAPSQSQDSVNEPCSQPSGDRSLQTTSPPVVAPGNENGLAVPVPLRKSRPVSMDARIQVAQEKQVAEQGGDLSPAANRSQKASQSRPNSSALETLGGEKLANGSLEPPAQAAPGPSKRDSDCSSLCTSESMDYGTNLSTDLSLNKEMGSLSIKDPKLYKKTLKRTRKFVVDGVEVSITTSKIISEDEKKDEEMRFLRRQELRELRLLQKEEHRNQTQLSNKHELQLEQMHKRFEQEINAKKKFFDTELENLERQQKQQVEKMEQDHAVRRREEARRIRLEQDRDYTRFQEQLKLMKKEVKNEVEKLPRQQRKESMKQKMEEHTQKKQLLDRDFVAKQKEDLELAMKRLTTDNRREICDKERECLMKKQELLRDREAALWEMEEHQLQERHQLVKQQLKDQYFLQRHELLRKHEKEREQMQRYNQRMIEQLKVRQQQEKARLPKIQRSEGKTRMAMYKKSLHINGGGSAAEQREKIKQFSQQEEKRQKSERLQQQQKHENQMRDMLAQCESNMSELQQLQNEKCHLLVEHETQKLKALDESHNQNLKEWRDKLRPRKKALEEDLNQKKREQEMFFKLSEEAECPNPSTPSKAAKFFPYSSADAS
Description: as §1

CK1gamma1 = CK1gamma1 (Homo sapiens (Human), UniProt Q9HCP0); test: KinaseProfiler off-target kinase profiling; type: biochemical; details: 10 μM, ATP near Km
Sequence of CK1gamma1 (Q9HCP0 whole entry): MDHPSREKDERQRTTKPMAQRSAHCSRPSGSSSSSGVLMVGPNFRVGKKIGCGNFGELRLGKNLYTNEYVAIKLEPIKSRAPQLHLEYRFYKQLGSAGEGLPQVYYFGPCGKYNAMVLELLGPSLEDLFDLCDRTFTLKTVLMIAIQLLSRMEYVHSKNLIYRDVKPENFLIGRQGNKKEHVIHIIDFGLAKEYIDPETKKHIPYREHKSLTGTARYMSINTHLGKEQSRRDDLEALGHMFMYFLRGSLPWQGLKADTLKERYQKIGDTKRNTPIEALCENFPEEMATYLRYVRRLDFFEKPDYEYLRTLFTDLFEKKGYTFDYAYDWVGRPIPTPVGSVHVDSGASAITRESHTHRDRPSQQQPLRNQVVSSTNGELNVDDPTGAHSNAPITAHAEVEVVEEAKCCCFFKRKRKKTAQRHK
Description: as §1

ErbB4 = ErbB4 (Homo sapiens (Human), UniProt Q15303); test: KinaseProfiler off-target kinase profiling; type: biochemical; details: 10 μM, ATP near Km
Description: as §1

eEF-2K = eEF-2K (Homo sapiens (Human), UniProt O00418); test: KinaseProfiler off-target kinase profiling; type: biochemical; details: 10 μM, ATP near Km
Description: as §1

Sequence of His-tagged recombinant human TrkA (P04629 440-796): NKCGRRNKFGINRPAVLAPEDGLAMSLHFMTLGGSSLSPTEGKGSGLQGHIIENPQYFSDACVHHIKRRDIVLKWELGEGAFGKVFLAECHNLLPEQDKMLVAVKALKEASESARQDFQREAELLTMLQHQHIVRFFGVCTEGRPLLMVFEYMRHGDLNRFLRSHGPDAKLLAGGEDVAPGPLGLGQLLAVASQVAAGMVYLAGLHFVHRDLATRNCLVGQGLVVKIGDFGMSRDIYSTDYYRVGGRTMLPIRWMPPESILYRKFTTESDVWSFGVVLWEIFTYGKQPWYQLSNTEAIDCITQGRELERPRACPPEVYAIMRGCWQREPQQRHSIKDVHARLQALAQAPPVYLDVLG

Avg. POC (PRKG1beta) [POC] | Avg. POC (LIMK1) [POC] | Avg. POC (CK1delta) [POC] | Avg. POC (p38alpha) [POC] | Avg. POC (MKNK2) [POC] | Avg. POC (CDK1/cyclinB) [POC] | Avg. POC (EphB4) [POC] | Avg. POC (DAPK1) [POC] | Avg. POC (CLK3) [POC] | Avg. POC (KDR) [POC] | Avg. POC (NLK) [POC] | Avg. POC (Axl) [POC] | Avg. POC (GRK7) [POC] | Avg. POC (JNK1alpha1) [POC] | Avg. POC (Pim-3) [POC] | Avg. POC (Rsk1) [POC] | Avg. POC (ITK) [POC] | Avg. POC (p38gamma) [POC] | Avg. POC (PrKX) [POC] | Avg. POC (EphA2) [POC] | Compound | further results
122 | 105 | 117.5 | 102.5 | 106.5 | 122.5 | 118.5 | 108.5 | 108 | 123.5 | 111 | 113.5 | 108.5 | 94 | 98 | 117 | 117.5 | 115 | 152 | 129 | Cc1c(-c2cnn(C)c2)nn(-c2ccccc2)c1NC(=O)N[C@H]1CCCc2ccccc21 [Example 2, (S)-1-(1′,4-dimethyl-1-phenyl-1H,1′H-3,4′-bipyrazol-5-yl)-3-(1,2,3,4-tetrahydronaphthalen-1-yl)urea] | IC50 [1]: < 0.1 µM; Avg. POC (TSSK2): 118.5 POC; Avg. POC (MSK1): 113.5 POC; Avg. POC (BrSK1): 119 POC; Avg. POC (Fgr): 131 POC; Avg. POC (CAMK2g): 107.5 POC; Avg. POC (p38delta): 96.5 POC; Avg. POC (NEK6): 125.5 POC; Avg. POC (PKCiota): 95.5 POC; Avg. POC (LOK): 109.5 POC; Avg. POC (CK1gamma1): 116.5 POC; Avg. POC (ErbB4): 148 POC; Avg. POC (eEF-2K): 138 POC
95.5 | 97.5 | 109.5 | 110 | 103.5 | 107.5 | 121 | 136 | 100 | 119.5 | 115.5 | 106 | 117 | 109.5 | 100.5 | 107.5 | 114.5 | 111 | 118.5 | 113 | Cc1c(-c2cnn(C)c2)nn(-c2ccccc2)c1NC(=O)NC1CCOc2cc(F)ccc21 (centres unmarked) [Example 12, 1-(1′,4-dimethyl-1-phenyl-1H,1′H-[3,4′-bipyrazol]-5-yl)-3-(7-fluorochroman-4-yl)urea] | IC50 [1]: < 0.1 µM; Avg. POC (TSSK2): 139 POC; Avg. POC (MSK1): 127.5 POC; Avg. POC (BrSK1): 111.5 POC; Avg. POC (Fgr): 114.5 POC; Avg. POC (CAMK2g): 107.5 POC; Avg. POC (p38delta): 99.5 POC; Avg. POC (NEK6): 121 POC; Avg. POC (PKCiota): 69.5 POC; Avg. POC (LOK): 116 POC; Avg. POC (CK1gamma1): 98.5 POC; Avg. POC (ErbB4): 122 POC; Avg. POC (eEF-2K): 140 POC
111.5 | 102 | 121.5 | 104.5 | 99.5 | 103 | 115 | 135 | 106 | 144.5 | 100.5 | 107 | 118 | 112 | 98 | 121 | 122 | 118 | 109 | 102 | Cc1c(-c2ccc(=O)n(C)c2)nn(-c2ccccc2)c1NC(=O)NC1CN(CC(F)(F)F)Cc2ccccc21 (centres unmarked) [Example 26, 1-(4-methyl-3-(1-methyl-6-oxo-1,6-dihydropyridin-3-yl)-1-phenyl-1H-pyrazol-5-yl)-3-(2-(2,2,2-trifluoroethyl)-1,2,3,4-tetrahydroisoquinolin-4-yl)urea] | Avg. POC (TSSK2): 128 POC; Avg. POC (MSK1): 114 POC; Avg. POC (BrSK1): 105.5 POC; Avg. POC (Fgr): 114.5 POC; Avg. POC (CAMK2g): 101 POC; Avg. POC (p38delta): 102 POC; Avg. POC (NEK6): 123.5 POC; Avg. POC (PKCiota): 85.5 POC; Avg. POC (LOK): 109 POC; Avg. POC (CK1gamma1): 106.5 POC; Avg. POC (ErbB4): 115.5 POC; Avg. POC (eEF-2K): 127.5 POC
80.5 | 95 | 135.5 | 96.5 | 99.5 | 104 | 106 | 131 | 109 | 129 | 125.5 | 119.5 | 117.5 | 118 | 112 | 111.5 | 124 | 116.5 | 110 | 118 | COCc1ccc2c(c1)C(NC(=O)Nc1c(C)c(-c3cnn(C)c3)nn1-c1ccccc1)COC2 (centres unmarked) [Example 32, 1-(1′,4-dimethyl-1-phenyl-1H,1′H-[3,4′-bipyrazol]-5-yl)-3-(6-(methoxymethyl)isochroman-4-yl)urea] | IC50 [1]: < 0.1 µM; Avg. POC (TSSK2): 120.5 POC; Avg. POC (MSK1): 118 POC; Avg. POC (BrSK1): 114.5 POC; Avg. POC (Fgr): 109.5 POC; Avg. POC (CAMK2g): 105 POC; Avg. POC (p38delta): 113.5 POC; Avg. POC (NEK6): 123 POC; Avg. POC (PKCiota): 71 POC; Avg. POC (LOK): 103.5 POC; Avg. POC (CK1gamma1): 111.5 POC; Avg. POC (ErbB4): 108.5 POC; Avg. POC (eEF-2K): 115 POC
